From paper PMC12169847, “Targeted protein degradation by KLHDC2 ligands identified by high-throughput screening” (eLife, 2025)
“And” between values parts separate entries of the source, which are not always exact repeats. Identical values can stand only once. Like-named read-outs stand apart in the source and are kept apart here.

Experiments:
BRD4 = BRD4 (Homo sapiens, UniProt O60885); experiment: Cell-based HiBiT BRD4 degradation assay in HEK293T; design: expressed in transfected cells; host or cells: HEK293T; settings: for DC50: BRD4-HiBiT, HEK293T; for Relative BRD4 levels (HiBiT luminescence): replicate wells;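 on all read-outs here: HEK293T cells transiently expressing HiBiT-tagged BRD4, exposed to serially diluted compounds, then lysed for a luminescence read-out that tracks the amount of cellular BRD4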
KEAP1 Kelch domain = target: T1, KEAP1 Kelch domain (Homo sapiens, UniProt Q14145); experiment: Fluorescence polarization counter-screen, KEAP1 with TAMRA-NRF2 peptide; type: binding; settings: for inhibitory effect in the KEAP1 counter-screening assay: concentrations less than 20 µM; for Fluorescence polarization signal: KEAP1, replicate wells
T1 construct: HIS6 (N); made in house; host or cells: Escherichia coli BL21(DE3)
T1 sequence (Q14145 321-609 limits assumed): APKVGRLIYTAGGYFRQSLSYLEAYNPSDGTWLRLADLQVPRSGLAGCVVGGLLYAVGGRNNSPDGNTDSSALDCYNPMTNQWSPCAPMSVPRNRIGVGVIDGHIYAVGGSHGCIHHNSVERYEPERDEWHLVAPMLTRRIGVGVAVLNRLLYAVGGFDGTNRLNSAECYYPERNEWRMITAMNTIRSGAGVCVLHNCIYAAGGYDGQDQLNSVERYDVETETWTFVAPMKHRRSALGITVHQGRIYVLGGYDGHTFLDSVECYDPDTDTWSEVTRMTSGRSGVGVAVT

For `COC(=O)c1cc(Cl)cc2c1NC(c1cccc(OCc3ccc(-c4ccc(NC(=O)C[C@@H]5N=C(c6ccc(Cl)cc6)c6c(sc(C)c6C)-n6c(C)nnc65)cc4)cc3)c1)C1C3CCC(C3)C21` (stereo partly drawn) [compound 9, Methyl 2-chloro-6-(3-((4'-(2-((S)-4-(4-chlorophenyl)-2,3,9-trimethyl-6H-thieno[3,2 f][1,2,4]triazolo[4,3 a][1,4]diazepin-6-yl)acetamido)-[1,1'-biphenyl]-4-yl)methoxy)phenyl)--5,6,6a,7,8,9,10,10a-octahydro-7,10-methanophenanthridine-4-carboxylate], the DC50 (BRD4; 4 hr, read-out: DC50 (4 hr)) was over 20 µM, the DC50 (BRD4; 24 hr, read-out: DC50 (24 hr)) was over 20 µM and the BRD4 degradation (BRD4; any concentration (<20 µM), 4 or 24 hr) was “did not promote BRD4 degradation”.

In the case of `Cc1ccn2c(-c3csc(Nc4ccc(S(=O)(=O)Nc5cc(C)on5)cc4)n3)c(C)nc2c1` [compound 4], the “inhibitory effect in the KEAP1 counter-screening assay” value (from here on “inhibitory effect”) (KEAP1 Kelch domain) is reported as “did not have an inhibitory effect”.

In the case of `COC(=O)c1cc(Cl)cc2c1NC(c1cccc(OCCOCCOCCNC(=O)CC3N=C(c4ccc(Cl)cc4)c4c(sc(C)c4C)-n4c(C)nnc43)c1)C1C3CCC(C3)C21` [compound 7, Methyl 2-chloro-6-(3-(2-(2-(2-(2-((S)-4-(4-chlorophenyl)–2,3,9-trimethyl-6H-thieno[3,2 f][1,2,4]triazolo[4,3 a][1,4]diazepin-6-yl)acetamido)ethoxy)ethoxy)ethoxy)phenyl)-5,6,6a,7,8,9,10,10a-octahydro-7,10-methanophenanthridine-4-carboxylate], the “Relative BRD4 levels (HiBiT luminescence)” value (“Relative BRD4 levels” below) (BRD4; 4 hr, 0.338702 nM) is reported as 1.014 and 0.8842 and 1.103, the “Relative BRD4 levels” value (BRD4; 4 hr, 1.01611 nM) is reported as 0.9863 and 1.241 and 1.012 and the “Relative BRD4 levels” value (BRD4; 4 hr, 3.04832 nM) is reported as 0.8761 and 0.9572 and 0.9491. For the same compound, the “Relative BRD4 levels” value (BRD4; 4 hr, 9.14495 nM) was 0.9491 and 0.7788 and 0.8761, the “Relative BRD4 levels” value (BRD4; 4 hr, 27.4348 nM) was 0.9248 and 1.014 and 0.9978 and the “Relative BRD4 levels” value (BRD4; 4 hr, 82.3045 nM) was 0.9816 and 0.9329 and 0.9248. The “Relative BRD4 levels” value (BRD4; 4 hr, 246.914 nM) was 0.9653 and 0.868 and 0.941, the “Relative BRD4 levels” value (BRD4; 4 hr, 740.741 nM) was 0.7544 and 0.7706 and 0.8518 and the “Relative BRD4 levels” value (BRD4; 4 hr, 2222.22 nM) was 0.7382 and 0.5841 and 0.7139. The “Relative BRD4 levels” value (BRD4; 4 hr, 6666.67 nM) was 0.3732 and 0.3975 and 0.4462, the “Relative BRD4 levels” value (BRD4; 4 hr, 20000 nM) was 0.3569 and 0.3164 and 0.3326 and the “Relative BRD4 levels” value (BRD4; 24 hr, 0.338702 nM) was 1.478 and 0.7263 and 0.7659. The “Relative BRD4 levels” value (BRD4; 24 hr, 1.01611 nM) was 0.6909 and 0.8141 and 0.7927, the “Relative BRD4 levels” value (BRD4; 24 hr, 3.04832 nM) was 0.6888 and 0.7059 and 0.7509 and the “Relative BRD4 levels” value (BRD4; 24 hr, 9.14495 nM) was 0.6963 and 0.9298 and 0.7745. For the same compound, the “Relative BRD4 levels” value (BRD4; 24 hr, 27.4348 nM) was 0.7895 and 0.7691 and 1.0519, the “Relative BRD4 levels” value (BRD4; 24 hr, 82.3045 nM) was 0.858 and 0.8752 and 0.9459 and the “Relative BRD4 levels” value (BRD4; 24 hr, 246.914 nM) was 0.8891 and 0.8666 and 0.9223. For the same compound, the “Relative BRD4 levels” value (BRD4; 24 hr, 740.741 nM) was 1.234 and 1.1783 and 1.43, the “Relative BRD4 levels” value (BRD4; 24 hr, 2222.22 nM) was 0.8473 and 0.8591 and 0.9544 and the “Relative BRD4 levels” value (BRD4; 24 hr, 6666.67 nM) was 0.1778 and 0.1692 and 0.1789. For the same compound, the “Relative BRD4 levels” value (BRD4; 24 hr, 20000 nM) was 0.1875 and 0.1318 and 0.1307, the DC50 (BRD4; 4 hr, read-out: DC50 (4 hr)) was 2.6 µM and 2.63 µM and the DC50 (BRD4; 24 hr, read-out: DC50 (24 hr)) was 4 µM.

In the case of `O=C(O)c1cc(Cl)cc2c1NC(c1cccc(OC(F)(F)F)c1)C1C3CCC(C3)C21` (stereo not drawn) [compound 6], the Fluorescence polarization signal (KEAP1 Kelch domain; 0.169351 nM) is reported as 16 and 15 and 25, the Fluorescence polarization signal (KEAP1 Kelch domain; 0.508053 nM) is reported as 18 and 23 and 21 and the Fluorescence polarization signal (KEAP1 Kelch domain; 1.52416 nM) is reported as 13 and 22 and 29. The Fluorescence polarization signal (KEAP1 Kelch domain; 4.57247 nM) was 22 and 15 and 21, the Fluorescence polarization signal (KEAP1 Kelch domain; 13.7174 nM) was 20 and 23 and 18 and the Fluorescence polarization signal (KEAP1 Kelch domain; 41.1523 nM) was 29 and 24 and 17. The Fluorescence polarization signal (KEAP1 Kelch domain; 123.457 nM) was 18 and 24 and 30, the Fluorescence polarization signal (KEAP1 Kelch domain; 370.37 nM) was 25 and 12 and 20 and the Fluorescence polarization signal (KEAP1 Kelch domain; 1111.11 nM) was 21 and 16 and 26. The Fluorescence polarization signal (KEAP1 Kelch domain; 3333.33 nM) was 15 and 23 and 32, the Fluorescence polarization signal (KEAP1 Kelch domain; 10000 nM) was 23 and 26 and 17 and the “inhibitory effect” value (KEAP1 Kelch domain) was “no inhibitory effect”. The EC50 (KEAP1 Kelch domain; in figure) was over 20 µM.

For `Cc1cc(NS(=O)(=O)c2ccc(Nc3nc(-c4c(C)nc5ccccn45)cs3)cc2)no1` [compound 3], the “inhibitory effect” value (KEAP1 Kelch domain) was “did not have an inhibitory effect”.
